Results from patent US20250129430A1, “HIGH ATP-AFFINITY PROTEIN AS THERAPEUTIC TARGET FOR INTRACTABLE CANCER MOLECULAR SUBTYPES AND INHIBITOR THEREOF” (VeraVerse Co., Ltd., priority 2021, published 2025).

Key:
Test in all cases: Cell viability drug screen, 12-point dose-response AUC
Type in all cases: cell-based, human
SNU1 = SNU1 cells, 72 hours
Protocol: (§1) An FDA-approved small-molecule pharmacological compound (#L1300) and an anticancer compound for research (#L2000) were purchased from Selecckchem and a 10 mM solution was prepared in DMSO. A total of 1,345 compounds were tested the cell viability of the seven EMT gastric cancer cell lines.
(§2) Cells cultured for cell-based drug assay were inoculated into a 96-well white optical plate (Corning) at 5×10^3 cells per well. After 24 hours after inoculation, a 2.5 MJT (primary screen) or a half-log 12-serial diluent (secondary screen) of the pharmacological compound contained in DMSO is added to the cells with a robot using a BioMek FXp liquid processor (Beckman) to add to the cells at 50 mM. The final drug concentration in the 5 ns range and the DMSO specification control (0.5%) were calculated. The cells were then further incubated at 37° C. in a 5% CO2 incubator for 72 hours prior to measuring cell viability using the extra-GLO assay kit (Promega). The luminescent properties were measured after 15 min incubation at room temperature using a plate stacker equipped with a plate stacker. The normalized viability for the DMSO-based control was measured to generate a cell line-specific 12-point dose-response curve for each pharmacological compound, and then the area under the curve (AUC) was calculated using a trapezoidal method. […] The results of the repeated experiments were averaged to generate AUC values for each cell line for each compound.

NCC19 = NCC19 cells, 72 hours
Protocol: as §1, §2

YCC11 = conditions: 72 hours; for Average Area Under the Viability Curve (AUC), AUC norm value: YCC11 cells (SEM subtype)
Protocol: as §1, §2

SNU719 = SNU719 cells, 72 hours
Protocol: as §1, §2

SNU216 = conditions: 72 hours; for Average Area Under the Viability Curve (AUC), AUC norm value: SNU216 cells (non-SEM subtype)
Protocol: as §1, §2

Hs746T = conditions: 72 hours; for Average Area Under the Viability Curve (AUC), AUC norm value: Hs746T cells (SEM subtype)
Protocol: as §1, §2

YCC3 = YCC3 cells, 72 hours
Protocol: as §1, §2

SNU638 = SNU638 cells, 72 hours
Protocol: as §1, §2

MKN1 = MKN1 cells, 72 hours
Protocol: as §1, §2

SNU1750 = conditions: 72 hours; for Average Area Under the Viability Curve (AUC), AUC norm value: SNU1750 cells (SEM subtype)
Protocol: as §1, §2

SK4 = conditions: 72 hours; for Average Area Under the Viability Curve (AUC), AUC norm value: SK4 cells (SEM subtype)
Protocol: as §1, §2

OCUM1 = OCUM1 cells, 72 hours
Protocol: as §1, §2

NCC24 = NCC24 cells, 72 hours
Protocol: as §1, §2

SNU620 = SNU620 cells, 72 hours
Protocol: as §1, §2

SNU1967 = SNU1967 cells, 72 hours
Protocol: as §1, §2

SNU484 = conditions: 72 hours; for Average Area Under the Viability Curve (AUC), AUC norm value: SNU484 cells (SEM subtype)
Protocol: as §1, §2

MKN45 = conditions: 72 hours; for Average Area Under the Viability Curve (AUC), AUC norm value: MKN45 cells (non-SEM subtype)
Protocol: as §1, §2

AGS = conditions: 72 hours; for Average Area Under the Viability Curve (AUC), AUC norm value: AGS cells (non-SEM subtype)
Protocol: as §1, §2

MKN74 = MKN74 cells, 72 hours
Protocol: as §1, §2

SNU16 = SNU16 cells, 72 hours
Protocol: as §1, §2

YCC2 = YCC2 cells, 72 hours
Protocol: as §1, §2

KATO3 = KATO3 cells, 72 hours
Protocol: as §1, §2

SNU601 = SNU601 cells, 72 hours
Protocol: as §1, §2

NCC59 = NCC59 cells, 72 hours
Protocol: as §1, §2

MKN28 = MKN28 cells, 72 hours
Protocol: as §1, §2

SNU668 = conditions: 72 hours; for Average Area Under the Viability Curve (AUC), AUC norm value: SNU668 cells (SEM subtype)
Protocol: as §1, §2

NCC20 = NCC20 cells, 72 hours
Protocol: as §1, §2

NCI_N87 = NCI_N87 cells, 72 hours
Protocol: as §1, §2

FU97 = tested on: FU97; parameters: Average Area Under the Viability Curve (AUC), AUC norm value: scale not given here; conditions: FU97 cells, 72 hours
Protocol: Cells cultured for cell-based drug assay were inoculated into a 96-well white optical plate (Corning) at 5×10^3 cells per well. After 24 hours after inoculation, a 2.5 MJT (primary screen) or a half-log 12-serial diluent (secondary screen) of the pharmacological compound contained in DMSO is added to the cells with a robot using a BioMek FXp liquid processor (Beckman) to add to the cells at 50 mM. The final drug concentration in the 5 ns range and the DMSO specification control (0.5%) were calculated. The cells were then further incubated at 37° C. in a 5% CO2 incubator for 72 hours prior to measuring cell viability using the extra-GLO assay kit (Promega). The luminescent properties were measured after 15 min incubation at room temperature using a plate stacker equipped with a plate stacker. The normalized viability for the DMSO-based control was measured to generate a cell line-specific 12-point dose-response curve for each pharmacological compound, and then the area under the curve (AUC) was calculated using a trapezoidal method.

CC(/C=C/C(=O)NO)=C\[C@@H](C)C(=O)c1ccc(N(C)C)cc1 [Trichostatin A (TSA), Trichostatin A]
area under the viability curve (AUC), normalized (SNU1; 12-point dose-response): −0.9946
area under the viability curve (AUC), normalized (NCC19; 12-point dose-response): −0.3026
area under the viability curve (AUC), normalized (YCC11; YCC11 cells, 12-point dose-response): −0.2695
area under the viability curve (AUC), normalized (SNU719; 12-point dose-response): 1.883
area under the viability curve (AUC), normalized (SNU216; SNU216 cells, 12-point dose-response): 0
area under the viability curve (AUC), normalized (Hs746T; Hs746T cells, 12-point dose-response): 0.6621
area under the viability curve (AUC), normalized (YCC3; 12-point dose-response): 1.17
area under the viability curve (AUC), normalized (SNU638; 12-point dose-response): −0.2758
area under the viability curve (AUC), normalized (MKN1; 12-point dose-response): 0.4223
area under the viability curve (AUC), normalized (SNU1750; SNU1750 cells, 12-point dose-response): −1.0771
area under the viability curve (AUC), normalized (SK4; SK4 cells, 12-point dose-response): 0.7897
area under the viability curve (AUC), normalized (OCUM1; 12-point dose-response): 0.1474
area under the viability curve (AUC), normalized (NCC24; 12-point dose-response): −1.307
area under the viability curve (AUC), normalized (SNU620; 12-point dose-response): −1.343
area under the viability curve (AUC), normalized (SNU1967; 12-point dose-response): −1.472
area under the viability curve (AUC), normalized (SNU484; SNU484 cells, 12-point dose-response): 0.4515
area under the viability curve (AUC), normalized (MKN45; MKN45 cells, 12-point dose-response): 2.215
area under the viability curve (AUC), normalized (AGS; AGS cells, 12-point dose-response): −1.137
area under the viability curve (AUC), normalized (MKN74; 12-point dose-response): 0.3005
area under the viability curve (AUC), normalized (SNU16; 12-point dose-response): 1.141
area under the viability curve (AUC), normalized (YCC2; 12-point dose-response): 0.2017
area under the viability curve (AUC), normalized (KATO3; 12-point dose-response): −0.1555
area under the viability curve (AUC), normalized (SNU601; 12-point dose-response): 1.155
area under the viability curve (AUC), normalized (NCC59; 12-point dose-response): 1.784
area under the viability curve (AUC), normalized (MKN28; 12-point dose-response): −0.6515
area under the viability curve (AUC), normalized (SNU668; SNU668 cells, 12-point dose-response): 0.1344
area under the viability curve (AUC), normalized (NCC20; 12-point dose-response): −1.842
area under the viability curve (AUC), normalized (NCI_N87; 12-point dose-response): −0.01232
area under the viability curve (AUC), normalized (FU97; 12-point dose-response): −1.181

Cc1ccc(S(=O)(=O)/C=C/C#N)cc1 [BAY 11-7082 (BAY 11-7821), BAY 11-7082]
Average Area Under the Viability Curve (AUC), AUC norm value (SNU1): 1.33
Average Area Under the Viability Curve (AUC), AUC norm value (NCC19): −0.07527
Average Area Under the Viability Curve (AUC), AUC norm value (YCC11): −1.538
Average Area Under the Viability Curve (AUC), AUC norm value (SNU719): 1.377
Average Area Under the Viability Curve (AUC), AUC norm value (SNU216): 0.3865
Average Area Under the Viability Curve (AUC), AUC norm value (Hs746T): −0.5796
Average Area Under the Viability Curve (AUC), AUC norm value (YCC3): 0.7116
Average Area Under the Viability Curve (AUC), AUC norm value (SNU638): −1.497
Average Area Under the Viability Curve (AUC), AUC norm value (MKN1): −0.3248
Average Area Under the Viability Curve (AUC), AUC norm value (SNU1750): −1.012
Average Area Under the Viability Curve (AUC), AUC norm value (SK4): −0.7659
Average Area Under the Viability Curve (AUC), AUC norm value (OCUM1): 0.7491
Average Area Under the Viability Curve (AUC), AUC norm value (NCC24): 0.8357
Average Area Under the Viability Curve (AUC), AUC norm value (SNU620): −0.1923
Average Area Under the Viability Curve (AUC), AUC norm value (SNU1967): −0.8028
Average Area Under the Viability Curve (AUC), AUC norm value (SNU484): −0.4504
Average Area Under the Viability Curve (AUC), AUC norm value (MKN45): 0.194
Average Area Under the Viability Curve (AUC), AUC norm value (AGS): −0.5085
Average Area Under the Viability Curve (AUC), AUC norm value (MKN74): 0.03633
Average Area Under the Viability Curve (AUC), AUC norm value (SNU16): −0.6715
Average Area Under the Viability Curve (AUC), AUC norm value (YCC2): 0
Average Area Under the Viability Curve (AUC), AUC norm value (KATO3): 0.7229
Average Area Under the Viability Curve (AUC), AUC norm value (SNU601): 0.7218
Average Area Under the Viability Curve (AUC), AUC norm value (NCC59): 1.031
Average Area Under the Viability Curve (AUC), AUC norm value (MKN28): −0.1987
Average Area Under the Viability Curve (AUC), AUC norm value (SNU668): 0.8081
Average Area Under the Viability Curve (AUC), AUC norm value (NCC20): −0.8287
Average Area Under the Viability Curve (AUC), AUC norm value (NCI_N87): 0.5073
Average Area Under the Viability Curve (AUC), AUC norm value (FU97): 0.0931

CO[C@H]1C(=O)[C@]2(C)[C@@H](OC)C[C@H]3OC[C@@]3(OC(C)=O)[C@H]2[C@H](OC(=O)c2ccccc2)[C@]2(O)C[C@H](OC(=O)[C@H](O)[C@@H](NC(=O)OC(C)(C)C)c3ccccc3)C(C)=C1C2(C)C [Cabazitaxel (Jevtana), Cabazitaxel]
Average Area Under the Viability Curve (AUC), AUC norm value (SNU1): −3.451
Average Area Under the Viability Curve (AUC), AUC norm value (NCC19): 0
Average Area Under the Viability Curve (AUC), AUC norm value (YCC11): −1.189
Average Area Under the Viability Curve (AUC), AUC norm value (SNU719): 6.209
Average Area Under the Viability Curve (AUC), AUC norm value (SNU216): 2.335
Average Area Under the Viability Curve (AUC), AUC norm value (Hs746T): 1.085
Average Area Under the Viability Curve (AUC), AUC norm value (YCC3): 3.384
Average Area Under the Viability Curve (AUC), AUC norm value (SNU638): −0.1608
Average Area Under the Viability Curve (AUC), AUC norm value (MKN1): −1.266
Average Area Under the Viability Curve (AUC), AUC norm value (SNU1750): 0.6058
Average Area Under the Viability Curve (AUC), AUC norm value (SK4): −0.7298
Average Area Under the Viability Curve (AUC), AUC norm value (OCUM1): 3.086
Average Area Under the Viability Curve (AUC), AUC norm value (NCC24): −1.077
Average Area Under the Viability Curve (AUC), AUC norm value (SNU620): −3.501
Average Area Under the Viability Curve (AUC), AUC norm value (SNU1967): 1.228
Average Area Under the Viability Curve (AUC), AUC norm value (SNU484): −0.7278
Average Area Under the Viability Curve (AUC), AUC norm value (MKN45): 2.138
Average Area Under the Viability Curve (AUC), AUC norm value (AGS): −2.201
Average Area Under the Viability Curve (AUC), AUC norm value (MKN74): 0.4319
Average Area Under the Viability Curve (AUC), AUC norm value (SNU16): −2.759
Average Area Under the Viability Curve (AUC), AUC norm value (YCC2): 0.2073
Average Area Under the Viability Curve (AUC), AUC norm value (KATO3): 4.95
Average Area Under the Viability Curve (AUC), AUC norm value (SNU601): −1.688
Average Area Under the Viability Curve (AUC), AUC norm value (NCC59): 3.939
Average Area Under the Viability Curve (AUC), AUC norm value (MKN28): −2.213
Average Area Under the Viability Curve (AUC), AUC norm value (SNU668): 0.4109
Average Area Under the Viability Curve (AUC), AUC norm value (NCC20): −0.8551
Average Area Under the Viability Curve (AUC), AUC norm value (NCI_N87): −1.712
Average Area Under the Viability Curve (AUC), AUC norm value (FU97): 0.3061
